Experimental data taken from patent US5696117A, “Benzoxazine antimicrobial agents” (Ortho Pharmaceutical Corporation, priority 1995, dated 1997).

Target: T1, Kinase A and SpoOF (Bacillus subtilis, UniProt P16497)
T1 construct: made in house; host or cells: recombinant E. coli (overexpression)
T1 sequence (P16497 1-606): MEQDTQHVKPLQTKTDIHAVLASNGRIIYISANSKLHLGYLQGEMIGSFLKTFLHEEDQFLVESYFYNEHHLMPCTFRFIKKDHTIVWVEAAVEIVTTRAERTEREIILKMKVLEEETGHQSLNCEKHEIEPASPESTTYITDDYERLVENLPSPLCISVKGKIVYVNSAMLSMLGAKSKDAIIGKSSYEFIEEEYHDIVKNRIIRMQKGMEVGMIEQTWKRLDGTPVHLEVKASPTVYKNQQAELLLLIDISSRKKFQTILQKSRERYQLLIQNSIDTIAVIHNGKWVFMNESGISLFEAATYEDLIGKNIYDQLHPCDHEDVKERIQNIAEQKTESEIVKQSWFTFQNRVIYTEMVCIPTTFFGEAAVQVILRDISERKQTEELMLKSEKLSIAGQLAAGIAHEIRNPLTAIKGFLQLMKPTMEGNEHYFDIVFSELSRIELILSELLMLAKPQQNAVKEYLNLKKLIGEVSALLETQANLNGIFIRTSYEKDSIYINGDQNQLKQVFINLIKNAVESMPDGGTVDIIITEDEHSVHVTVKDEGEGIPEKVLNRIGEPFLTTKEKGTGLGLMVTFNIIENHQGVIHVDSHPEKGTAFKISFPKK
Assay: Autophosphorylation of Kinase A and Transphosphorylation of SpoOF Assay (HPK in vitro assay)
Format: biochemical
Settings: inhibition of KinA autophosphorylation / SpoOF transphosphorylation, inhibitor concentrations from 1 to 500 μM
Experimental: 1. Autophosphorylation of Kinase A and Transphosphorylation of SpoOF Assay
To study the effect of the compounds of the present invention on the signal transduction process in bacteria, the inhibiting effect of the compounds on the sporulation operon proteins Kinase A and SpoOF was examined. Specifically, the inhibition of autophosphorylation of Kinase A and the transphosphorylation of SpoOF was determined in the following assays. The SpoOF response regulator is the primary substrate for phosphorylation by the protein kinase, Kin A, involved in the sporulation process in bacteria. See D. Burbulys, K. A. Trach, J. A. Hoch, Cell, 64, 545-552 (1991). SpoOF and KinA were prepared from recombinant E. coli overexpressing the proteins (J. Cavanagh et al, Amino Acids, 6, 131-140 (1994) and references therein).
The following stock reagents were either prepared and used promptly or stored at the indicated temperature:
8× Salts: 2M KCl (5 mL), 1M MgCl2 (800 mL), 1M CaCl2 (100 mL), 10 mg/mL phenylmethylsulfonyl fluoride (200 mL), 1M dithioreitol (50 mL), 0.25M Na2 EDTA (32 mL) and H2 O 3.82 mL (-20° C.)
5× Loading Dye: 0.5M TRIS-HCl-pH 6.8 (7.5 mL), 10% SDS (2 mL) 0.1% bromophenol blue (0.5 mL), 100% glycerol (3 mL) and 12.5M 2-mercaptoethanol (0.3 mL)
1-1.3 mg/mL KinA:15 mM TRIS-HCl, pH 8.0, 6 mM KCl; 4 mM 2-mercaptoethanol; 40% glycerol (-20° C.)
1 mg/mL SpoOF: 17.5 mM TRIS-HCl, pH 8.0; 0.7 mM KCl; 0.7 mM MgCl2; 0.7 mM CaCl2; 5mM 2-mercaptoethanol; 30% Glycerol (-20° C.)
5% Stacking Gel: 40% 29:1 acrylamide:bis acrylamide (1.25 mL), 0.5M TRIS-HCl, pH 6.8 (2.5 mL), 10% SDS (0.1 mL), D-H2 O (6.15 mL) 10% ammonium persulfate (100 mL) and TEMED (25 mL)
SDS Running Buffer: TRIS-BASE (3.02 g), glycine (14.4 g) SDS (1 g), D-H2 O (to 1 L)
The reaction mixture was prepared from 8× Salts (87 μL), 1M TRIS, pH 8 (118 μL), 50% glycerol (63 μL), SpoOF (14.1 μL) and KinA (7.0 μL). Microcentrifuge tubes were charged with the reaction mixture (18.5 μL) and a 1.0 mM solution of the test compound in 5% DMSO (18.5 μL), and incubated for 15 min on ice. 100 mM ATP solution (3.0 μl, containing 625 μCi [^32 P]ATP) was added, and the mixture left for 10 minutes at room temperature. The reaction was quenched with 5× loading dye (10 μL per tube) and the samples were loaded on a prepared 5% Stacking Gel, or stored on dry ice until ready for use. The prepared wells were filled with SDS Running Buffer, samples were loaded into the wells, and 80 volts were applied to the gel until the dye front reached the bottom of the stacking gel. The voltage was then increased to 250 volts until electrophoresis was complete. Radioactive bands in the gel corresponding to phosphorylated KinA and SpoOF were imaged and quantitated with a phosphoimager.
If either enzyme was inhibited (as evidenced by the absence of labelled protein in the developed gel), an IC50 was calculated by running the assay with a range of inhibitor concentrations from 1 to 500 μM. After electrophoresis of the reaction mixtures, percent inhibition was determined by measuring the concentration of radioactive phosphorus with a phosphoimager and calculating the values using a software program (BioRad Molecular Analyst). IC50 values of less than 500 μM are considered active.

Row | IC50 [µM] | Compound
1 | 17 | N=C(N)NCCc1ccc(OCCC2Oc3ccccc3N(Cc3ccc4ccccc4c3)C2=O)cc1 (stereo not drawn) [Compound 45, 3,4-Dihydro-2-{2-[4-(2-guanidinylethyl)phenoxy]ethyl}-4-(2-naphthylmethyl)-3-oxo-2H-1,4-benzoxazine]
2 | 68 | N=C(N)NCCc1ccc(OCCC2Oc3ccccc3N(Cc3ccsc3)C2=O)cc1 (stereo not drawn) [Compound 46, 3,4-Dihydro-2-{2-[4-(2-guanidinylethyl)phenoxy]ethyl}-3-oxo-2H-4-(3-thienylmethyl)-1,4-benzoxazine]
3 | 26 | N=C(N)NCCc1ccc(OCCC2Oc3ccccc3N(Cc3csc(Cl)c3)C2=O)cc1 (stereo not drawn) [Compound 48, 4-(2-Chloro-4-thienylmethyl)-3,4-dihydro-2-{2-[4-(2-guanidinoethyl)phenoxy]ethyl}-3-oxo-2H-1,4-benzoxazine]
4 | 36 | N=C(N)NCCc1ccc(OCCC2Oc3ccc(-c4ccccc4)cc3N(Cc3cccc(Cl)c3)C2=O)cc1 (stereo not drawn) [Compound 52, 4-(3-Chlorobenzyl)-3,4-dihydro-2-{2-[4-(2-guanidinoethyl)phenoxy]ethyl}-3-oxo-6-phenyl-2H-1,4-benzoxazine]
5 | 14 | N=C(N)NCCc1ccc(OCCC2Oc3ccc(C(F)(F)F)cc3N(Cc3cccc(Cl)c3)C2=O)cc1 (stereo not drawn) [Compound 54, 4-(3-Chlorobenzyl)-3,4-dihydro-2-{2-[4-(2-guanidinoethyl)phenoxy]ethyl}-3-oxo-6-trifluoromethyl-2H-1,4-benzoxazine]
6 | 28 | N=C(N)NCCc1ccc(OCCC2Oc3cc(F)ccc3N(Cc3cccc(Cl)c3)C2=O)cc1 (stereo not drawn) [Compound 55, 4-(3-Chlorobenzyl)-3,4-dihydro-7-fluoro-2-{2-[4-(2-guanidinoethyl)phenoxy]ethyl}-3-oxo-2H-1,4-benzoxazine]
7 | 17 | N=C(N)NCCc1ccc(OCCC2Oc3c(Cl)cc(Cl)cc3N(Cc3cccc(Cl)c3)C2=O)cc1 (stereo not drawn) [Compound 57, 4-(3-Chlorobenzyl)-6,8-dichloro-2-{2-[4-(2-guanidinoethyl)phenoxy]ethyl}-3,4-dihydro-3-oxo-2H-1,4-benzoxazine]
8 | 174 | N=C(N)NCCc1ccc(OCCC2Oc3ccncc3N(Cc3cccc(Cl)c3)C2=O)cc1 (stereo not drawn) [Compound 62, 4-(3-Chlorobenzyl)-3,4-dihydro-2-[2-[4-(2-guanidinoethyl)phenoxy]ethyl]-3-oxo-2H-pyrido[4,3-b]-1,4-oxazine]
9 | 19 | Cc1ccc(CN2CC(CCOc3ccc(CCNC(=N)N)cc3)Oc3ccccc32)cc1 (stereo not drawn) [Compound 66, 3,4-Dihydro-2-{2-[4-[2-guanidinoethyl]phenoxy]ethyl}-4-(4-methylbenzyl)-2H-1,4-benzoxazine]
10 | 17 | N=C(N)NCCc1ccc(OCCC2CN(Cc3ccc(Cl)cc3Cl)c3ccccc3O2)cc1 (stereo not drawn) [Compound 68, (2,4-Dichlorobenzyl)-3,4-dihydro-2-{2-[4-(2-guanidinoethyl)phenoxy]ethyl}-4-2H-1,4-benzoxazine]
11 | 27 | Cl.NCCc1ccc(OCCC2Oc3cc([N+](=O)[O-])ccc3N(Cc3cccc(Cl)c3)C2=O)cc1 (stereo not drawn) [Compound 82, 2-{2-[4-(2-Aminoethyl)phenoxy]ethyl}-4-(3-chlorobenzyl)-3,4-dihydro-7-nitro-3-oxo-2H-1,4-benzoxazine monohydrochloride]

Second part, the compound before the results:

Row | Compound | IC50 [µM]
12 | N=C(N)NCCc1ccc(OCCC2Oc3ccccc3N(Cc3ccncc3)C2=O)cc1 (stereo not drawn) [Compound 42, 3,4-Dihydro-2-{2-[4-(2-guanidinoethyl)phenoxy]ethyl}-3-oxo-4-(4-picolyl)-2H-1,4-benzoxazine] | 444
13 | N=C(N)NCCc1ccc(OCCC2Oc3ccccc3N(Cc3cccc4ccccc34)C2=O)cc1 (stereo not drawn) [Compound 43, 3,4-Dihydro-2-{2-[4-(2-guanidinoethyl)phenoxy]ethyl}-4-(1-naphthylmethyl)-3-oxo-2H-1,4-benzoxazine] | 13
14 | CC(C)(C)OC(=O)N=C(NCCc1ccc(OCCC2Oc3ccccc3N(Cc3csc(Cl)c3)C2=O)cc1)NC(=O)OC(C)(C)C (stereo not drawn) [Compound 47, 2-{2-[4-[2-(N,N-Bis-tert-butoxycarbonylguanidino)ethyl]phenoxy]ethyl}-4-(2-chloro-4-thienylmethyl)-3,4-dihydro-3-oxo-2H-1,4-benzoxazine] | 398
15 | CC(C)(C)OC(=O)N=C(NCCc1ccc(OCCC2Oc3ccc(C(F)(F)F)cc3N(Cc3cccc(Cl)c3)C2=O)cc1)NC(=O)OC(C)(C)C (stereo not drawn) [Compound 53, 2-{2-[4-[2-(N,N'-Bis-tert-butoxycarbonylguanidino)ethyl]phenoxy]ethyl}-4-(3-chlorobenzyl)-3,4-dihydro-3-oxo-6-trifluoromethyl-2H-1,4-benzoxazine] | 84
16 | CN1C(=O)C(CCOc2ccc(CCNC(=NC(=O)OC(C)(C)C)NC(=O)OC(C)(C)C)cc2)Oc2ccccc21 (stereo not drawn) [Compound 59, 2-{2-[4-[2-(N,N'-Bis-tert-butoxycarbonylguanidino)ethyl]phenoxy]ethyl}-3,4-dihydro-4-methyl-3-oxo-2H-1,4-benzoxazine] | 473
17 | CC(C)(C)OC(=O)NCCc1cccc(OCCC2Oc3ccccc3N(Cc3cccc(Cl)c3)C2=O)c1 (stereo not drawn) [Compound 69, 2-{2-[3-(2-(t-Butoxycarbonylamino)ethyl)phenoxy]ethyl}-4-(3-chlorobenzyl)-3,4-dihydro-3-oxo-2H-1,4-benzoxazine] | 358
18 | CC(C)(C)OC(=O)N=C(NCCc1ccc(OCCC2Oc3ccccc3N(Cc3cccc(Cl)c3)C2=O)cc1)NC(=O)OC(C)(C)C (stereo not drawn) [Compound 71, 2-{2-[4-[2-(N,N-'Bis-tert-butoxycarbonylguanidino)ethyl]phenoxy]ethyl}-4-(3-chlorobenzyl)-3,4-dihydro-3-oxo-2H-1,4-benzoxazine] | 300
19 | CC(C)(C)OC(=O)NCc1cccc(OCCC2Oc3ccccc3N(Cc3cccc(Cl)c3)C2=O)c1 (stereo not drawn) [Compound 73, 2-{2-[3-(t-Butoxycarbonylaminomethyl)phenoxy]ethyl}-4-(3-chlorobenzyl)-3,4-dihydro-3-oxo-2H-1,4-benzoxazine] | 354
20 | CC(C)(C)OC(=O)N=C(NCc1ccc(OCCC2Oc3ccccc3N(Cc3cccc(Cl)c3)C2=O)cc1)NC(=O)OC(C)(C)C (stereo not drawn) [Compound 77, 2-{2-[4-[(N,N-'Bis-tert-butoxycarbonyl)guanidinomethyl]phenoxy]ethyl}-4-(3-chlorobenzyl)-3,4-dihydro-3-oxo-2H-1,4-benzoxazine] | 51
21 | CC(C)(C)OC(=O)N=C(NCCc1ccc(OCCC2Oc3cc([N+](=O)[O-])ccc3N(Cc3cccc(Cl)c3)C2=O)cc1)NC(=O)OC(C)(C)C (stereo not drawn) [Compound 80] | 162
